The source of these data is US5424303A, “Substituted aminophosphonate derivatives, process for their preparation and pharmaceutical compositions containing them” (Symphar SA, priority 1992, dated 1995).

The subject of data set [1] is lipid peroxidation (rat liver homogenate). Nature of the data set: Antioxidant activity, inhibition of iron induced lipid peroxidation in liver homogenate. The settings on record: FeSO4, 37° C., 2 h; <25 μM where IC50 was not determined. The data set is classed as biochemical, Wistar rat. The procedure:
The liver of a Wistar rat anesthetized with ether was collected and homogenized in 4 volumes of phosphate buffer (+4° C., pH 7.4) by means of a Potter. After centrifugation at 2000 rpm for 10 min the supernatant obtained was kept at +4° C. Lipid peroxidation was carried out in presence of FeSOhd according to the method described by A. T. Quitaniha et at, Ann.
The mixture contained 1.7 ml phosphate buffer, 0.2 ml homogenate and 0.1 ml of a 2 mM FeSO4 solution. The test compounds were added in a volume of 61 μl of ethanol or DMSO. Oxydation was carried out at 37° C. for 2 h and was stopped by the addition of 20 μl of 2% ethanolic solution of BHT.

For data set [2], the system named is deposition of cholesterol in the arteries. The settings on record: hereditary atherosclerotic rabbits; cited from earlier work.
The next data set deals with xanthomas. The settings on record: patients suffering from familial hypercholesterolemia; cited from earlier work.
The test system of another data set is plasma cholesterol. Nature of the data set: Hypocholesterolemic activity, plasma cholesterol in mice fed test compound in diet. It is filed as in vivo, OF1 strain mice. The settings on record: for change in vivo at 180 mg/kg/day: Mus musculus, feed or water, 240 h, read-out: Plasma Cholesterol (% Control), 0.1% compound in food, 10 days, ca. 180 mg/kg daily, mouse; for decrease plasma cholesterol by: mouse, 0.1% in food, 10 days. As to the method: A. Hypocholesterolemic activity
Mouse fed a normal diet is a convenient model which was proposed by several authors (P. Olivier et al, Atherosclerosis 70, 107-114, 1988) ,for the screening for hypocholesterolemic drugs. OF1 strain mice (Iffa Credo) weighing between 25 and 35 g were divided into 5 groups of 5 animals each, four groups received the test compounds and the fifth group served as control. The test compounds were dissolved in diethyl ether. The ether solution was added to food to obtain a final concentration of 0.1%. compound in food. Ether was then evaporated at room temperature. The animals were fed for 10 days, the dally food intake corresponds to ca. 180 mg/kg. After an overnight fast, they were sacrificed by decapitation under ether anesthesia. Blood samples were collected using EDTA as anticoagulant.
Plasma cholesterol was measured by an enzymatic test (DIAMED, Morat, Switzerland). The mean values of each group receiving the test or reference compounds were expressed as percent of mean value of the contemporary control.

The subject of the next data set is HMGCoA reductase. The data set can be described thus: Inhibition of the enzyme HMGCoA reductase. The data set is classed as biochemical. The settings on record: positive control.
Another data set relates to CaCo-2. The data set is classed as cell-based. From the text:
In these two tests the positive control Lovastatin (hypocholesterolemic drug with HMGCoA reductase inhibitory activity) inhibits the enzyme and the ^14 C acetate incorporation by more than 98%. The mechanism of hypocholesterolemia of this class is different and potentially unique.

In the next data set the test system is Hep G2 cells. The data set can be described thus: Incorporation of 14C acetate in cholesterol synthesized by Hep G2 cells. It is filed as cell-based. The settings on record: positive control.

pIC50: −log10 of the molar value. Where only a bound is given, the exact number is not on record here.

In general, pIC50 refers to the IC50 on a negative log10 scale, so that one unit is a factor of ten. Higher therefore signals a low IC50. Take `CC(C)(Sc1cc(C(C)(C)C)c(O)c(C(C)(C)C)c1)Sc1cc(C(C)(C)C)c(O)c(C(C)(C)C)c1` [Probucol]: the pIC50 in data set [1] was < 4.60. Also, the “effect on deposition of cholesterol in the arteries (in words)” value in data set [2] is on record as “prevents the deposition of cholesterol in the arteries”. The “effect on xanthomas (in words)” value in the data set on xanthomas is given as “induces the regression of xanthomas”.

Consider `CCOP(=O)(OCC)C(NCCc1ccccn1)c1cc(C(C)(C)C)c(O)c(C(C)(C)C)c1` (stereo not drawn) [Compound 43, Diethyl α-(3,5-di-tert-butyl-4-hydroxyphenyl)-N-[2-(2-pyridyl)-ethyl]aminomethyl-phosphonate], for which the pIC50 in data set [1] was > 4.60. Moreover, in the data set with plasma cholesterol, the change in vivo at 180 mg/kg/day was -35% and the “decrease plasma cholesterol by” value is reported as “more than 30%”.

As for `CCCCCNC(c1cc(C(C)(C)C)c(O)c(C(C)(C)C)c1)P(=O)(OCC)OCC` (stereo not shown) [Compound 2], the pIC50 in data set [1] is 5.60. Further, the change in vivo at 180 mg/kg/day in the data set on plasma cholesterol is -8%.

For the compound `CCOP(=O)(OCC)C(NC1CCN(Cc2ccccc2)CC1)c1cc(C(C)(C)C)c(O)c(C(C)(C)C)c1` (stereo not shown) [Compound 36], in data set [1], the pIC50 was > 4.60. The change in vivo at 180 mg/kg/day with plasma cholesterol was -6%.

`CC(C)OP(=O)(OC(C)C)C(NCCc1ccc(Cl)cc1)c1cc(C(C)(C)C)c(O)c(C(C)(C)C)c1` (stereo not shown) [Compound 19] gave a pIC50 in data set [1] of 5.52. In the data set with plasma cholesterol, the change in vivo at 180 mg/kg/day was -33% and the “decrease plasma cholesterol by” value is “more than 30%”.

With `CCOP(=O)(OCC)C(NCCCc1ccccc1)c1ccc2c(c1)OCO2` (stereo not drawn) [Compound 80, Diethyl α-(3,4t-methylenedioxyphenyl)-N-(3-phenylpropyl)-aminomethylphosphonate], the pIC50 in data set [1] is < 4.60. The change in vivo at 180 mg/kg/day with plasma cholesterol was -29%.

For `CCOP(=O)(OCC)C(NCc1ccc(OC)c(OC)c1)c1cc(C(C)(C)C)c(O)c(C(C)(C)C)c1` (stereo not shown) [Compound 39], the pIC50 in data set [1] is 5.31. Also, the change in vivo at 180 mg/kg/day with plasma cholesterol is -4%.

Turning to `CCOP(=O)(OCC)C(NCCc1ccc(O)cc1)c1cc(C(C)(C)C)c(O)c(C(C)(C)C)c1` (stereo not shown) [Compound 15], the pIC50 in data set [1] was > 4.60. In addition, the change in vivo at 180 mg/kg/day in the data set on plasma cholesterol is -18%.

Take `COP(=O)(OC)C(NCCc1ccc(Cl)cc1)c1cc(C(C)(C)C)c(O)c(C(C)(C)C)c1` (stereo not shown) [Compound 16]: in data set [1], the pIC50 was 5.31. In addition, in the data set with plasma cholesterol, the change in vivo at 180 mg/kg/day is -28%.

In turn, `CCOP(=O)(OCC)C(NCCc1cccn1C)c1cc(C(C)(C)C)c(O)c(C(C)(C)C)c1` (stereo not shown) [Compound 37] showed a pIC50 in data set [1] of 5.40. For the same compound, the change in vivo at 180 mg/kg/day with plasma cholesterol turned out to be 12%.

`CC[C@H](C)C(=O)O[C@H]1C[C@@H](C)C=C2C=C[C@H](C)[C@H](CC[C@@H]3C[C@@H](O)CC(=O)O3)[C@H]21` [Lovastatin]: the “inhibition of HMGCoA reductase” value in the data set on HMGCoA reductase was “more than 98%”. Further, the “inhibition of 14C acetate incorporation, CaCo-2” value in the data set with CaCo-2 is given as “more than 98%”. In addition, the “inhibition of 14C acetate incorporation, Hep G2” value with Hep G2 cells was “more than 98%”.

On to `CCOP(=O)(OCC)C(Nc1ccc(OC)cc1)c1cc(C(C)(C)C)c(O)c(C(C)(C)C)c1` (stereo not drawn) [Compound 7, Diethyl α-(3,5-di-tert-butyl-4-hydroxyphenyl)-N-(4-methoxyphenyl)-aminomethylphosphonate], for which the pIC50 in data set [1] was > 4.60. Further, in the data set with plasma cholesterol, the change in vivo at 180 mg/kg/day is -47% and the “decrease plasma cholesterol by” value is reported as “more than 30%”.

Turning to `CCOP(=O)(OCC)C(NCCc1ccccc1)c1cc(C)c(O)c(C)c1` (stereo not shown) [Compound 72], the pIC50 in data set [1] was < 4.60. In addition, in the data set on plasma cholesterol, the change in vivo at 180 mg/kg/day was -1%.

For `CCOP(=O)(OCC)C(NCCCc1ccccc1)c1ccc(OC)cc1` (stereo not shown) [Compound 79], in data set [1], the pIC50 was < 4.60. Besides, in the data set on plasma cholesterol, the change in vivo at 180 mg/kg/day amounted to 9%.

Take `CCCOP(=O)(OCCC)C(NCCc1ccc(Cl)cc1)c1cc(C(C)(C)C)c(O)c(C(C)(C)C)c1` (stereo not shown) [Compound 18]: in data set [1], the pIC50 was 5.54. Further, in the data set with plasma cholesterol, the change in vivo at 180 mg/kg/day was -23%.

Regarding `CCOP(=O)(OCC)C(Nc1ccc(O)cc1)c1cc(C(C)(C)C)c(O)c(C(C)(C)C)c1` (stereo not shown) [Compound 4], the pIC50 in data set [1] was 5.39. Further, the change in vivo at 180 mg/kg/day in the data set with plasma cholesterol is -15%.
